Test results from patent publication US12077508B2, “Inhibitors of the Notch transcriptional activation complex kinase (“NACK”) and methods for use of the same” (UNIVERSITY OF MIAMI, priority 2018, dated 2024).

Experiment: Plasma pharmacokinetics
Type: in vivo, male C57 BL/6 mice
Conditions: for Tmax: ip
Source text: The plasma pharmacokinetic profile of Z271-0326 was investigated following a single intravenous and intraperitoneal dose administration in male C57 BL/6 mice (FIG. 12). […] The Vss was similar to the normal volume of total body water (0.7 L/kg). The Vss is a pharmacokinetic parameter, which represents the volume distribution of a drug in the body tissue. […] This dose was MTD for the 4-week efficacy studies shown in preliminary data.
The plasma pharmacokinetic profile of Z271-0326 was investigated following a single intravenous and intraperitoneal dose administration in male C57 BL/6 mice.

CCN(CC)C(=O)c1cnn2ccc(C3CCN(S(=O)(=O)c4ccc(NC(C)=O)cc4)CC3)cc12 [Compound Z271-0326, 5-(1-((4-acetamidophenyl)sulfonyl)piperidin-4-yl)-N,N-diethylpyrazolo[1,5-a]pyridine-3-carboxamide]
Tmax (male, C57BL/6, mouse, plasma, single intraperitoneal 25 mg/kg): 15 min
Tmax (male, C57BL/6, mouse, plasma, single intraperitoneal 100 mg/kg): 60 min
clearance (male, C57BL/6, mouse, plasma, single intravenous 5 mg/kg, read-out: systemic plasma clearance): 30 mL/min/kg
half-life (male, C57BL/6, mouse, plasma, single intravenous 5 mg/kg, read-out: terminal elimination half-life (converted)): 13.8 min
Vd (male, C57BL/6, mouse, plasma, single intravenous 5 mg/kg, similar to total body water, read-out: Vss): ~0.7 L/kg
time plasma concentrations quantifiable up to (single intraperitoneal 25 mg/kg): up to 4 hr
time plasma concentrations quantifiable up to (single intraperitoneal 100 mg/kg): up to 24 hr
